Measurements from the supplement of paper PMC4862054.

How the values were obtained:
Details in all cases: incubation time: 72 h
BT-474 [1] = assay: normalised response (% of control), CellTox Green; higher = less cell death (100 = DMSO, 0 = benzethonium chloride kill control)
Summary of the method: (§1)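 Each value is the plate-normalised signal at one concentration of the series. Breast cancer cell lines (20 µl suspension) were incubated 72 h in 384-well plates with compound at 5 concentrations in 10-fold steps over a compound-specific 10,000-fold range. CellTox Green and then CellTiter-Glo were read, and each plate was scaled to 0.1 % DMSO (100) and a positive kill control (0).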

BT-549 [2] = assay: as above
Summary of the method: as §1

CAL-120 [3] = assay: as above
Summary of the method: as §1

CAL-148 [4] = assay: as above
Summary of the method: as §1

CAL-51 [5] = assay: as above
Summary of the method: as §1

CAL-85-1 [6] = assay: as above
Summary of the method: as §1

DU-4475 [7] = assay: as above
Summary of the method: as §1

HCC1143 [8] = assay: as above
Summary of the method: as §1

HCC1599 [9] = assay: as above
Summary of the method: as §1

HCC1937 [10] = assay: as above
Summary of the method: as §1

HDQ-P1 [11] = assay: as above
Summary of the method: as §1

Hs578T [12] = assay: as above
Summary of the method: as §1

MCF-10A [13] = assay: as above
Summary of the method: as §1

MDA-MB-231 [14] = assay: as above
Summary of the method: as §1

MDA-MB-453 [15] = assay: as above
Summary of the method: as §1

MDA-MB-468 [16] = assay: as above
Summary of the method: as §1

MFM-223 [17] = assay: as above
Summary of the method: as §1

BT-474 [18] = assay: normalised response (% of control), CellTiter-Glo; higher = more viable cells (100 = DMSO, 0 = benzethonium chloride kill control)
Summary of the method: as §1

BT-549 [19] = assay: as above
Summary of the method: as §1

CAL-120 [20] = assay: as above
Summary of the method: as §1

CAL-148 [21] = assay: as above
Summary of the method: as §1

CAL-51 [22] = assay: as above
Summary of the method: as §1

CAL-85-1 [23] = assay: as above
Summary of the method: as §1

DU-4475 [24] = assay: as above
Summary of the method: as §1

HCC1143 [25] = assay: as above
Summary of the method: as §1

HCC1599 [26] = assay: as above
Summary of the method: as §1

HCC1937 [27] = assay: as above
Summary of the method: as §1

HDQ-P1 [28] = assay: as above
Summary of the method: as §1

Hs578T [29] = assay: as above
Summary of the method: as §1

MCF-10A [30] = assay: as above
Summary of the method: as §1

MDA-MB-231 [31] = assay: as above
Summary of the method: as §1

MDA-MB-436 [32] = assay: as above
Summary of the method: as §1

MDA-MB-453 [33] = assay: as above
Summary of the method: as §1

MDA-MB-468 [34] = assay: as above
Summary of the method: as §1

MFM-223 [35] = assay: as above
Summary of the method: as §1

SK-BR-3 = assay: as above
Summary of the method: as §1

MDA-MB-436 [36] = assay: normalised response (% of control), CellTox Green; higher = less cell death (100 = DMSO, 0 = benzethonium chloride kill control)
Summary of the method: as §1

Row | Structure (SMILES) | normalised response (BT-474 [1]) [%] | normalised response (BT-549 [2]) [%] | normalised response (CAL-120 [3]) [%] | normalised response (CAL-148 [4]) [%] | normalised response (CAL-51 [5]) [%] | normalised response (CAL-85-1 [6]) [%] | normalised response (DU-4475 [7]) [%] | normalised response (HCC1143 [8]) [%] | normalised response (HCC1599 [9]) [%] | normalised response (HCC1937 [10]) [%] | normalised response (HDQ-P1 [11]) [%] | normalised response (Hs578T [12]) [%] | normalised response (MCF-10A [13]) [%] | normalised response (MDA-MB-231 [14]) [%] | normalised response (MDA-MB-453 [15]) [%] | normalised response (MDA-MB-468 [16]) [%] | normalised response (MFM-223 [17]) [%] | normalised response (BT-474 [18]) [%] | normalised response (BT-549 [19]) [%] | normalised response (CAL-120 [20]) [%] | normalised response (CAL-148 [21]) [%] | normalised response (CAL-51 [22]) [%] | normalised response (CAL-85-1 [23]) [%] | normalised response (DU-4475 [24]) [%] | normalised response (HCC1143 [25]) [%] | normalised response (HCC1599 [26]) [%] | normalised response (HCC1937 [27]) [%] | normalised response (HDQ-P1 [28]) [%] | normalised response (Hs578T [29]) [%] | normalised response (MCF-10A [30]) [%] | normalised response (MDA-MB-231 [31]) [%] | normalised response (MDA-MB-436 [32]) [%] | normalised response (MDA-MB-453 [33]) [%] | normalised response (MDA-MB-468 [34]) [%] | normalised response (MFM-223 [35]) [%] | normalised response (SK-BR-3) [%] | normalised response (MDA-MB-436 [36]) [%]
1 | Nc1nc(OCc2cc(Br)cs2)c2[nH]cnc2n1 [Lomeguatrib] (1000 nM) | 100 | 108 | 102 | 99.9 | 104 | 98.9 | 101 | 117 | 93.2 | 111 | 112 | 100 | 93.5 | 104 | 103 | 139 | 82.9 | 103 | 96.6 | 96.6 | 99.3 | 103 | 104 | 102 | 101 | 118 | 97.8 | 102 | 102 | 104 | 103 | 97.6 | 105 | 100 | 104 | 103 | 
2 | CN(C)C[C@@H]1CCn2cc(c3ccccc32)C2=C(C(=O)NC2=O)c2cn(c3ccccc23)CCO1 [Ruboxistaurin] (1000 nM) |  | 106 | 98.7 | 55 | 78.1 | 111 | 100 | 109 | 95 | 104 | 98.5 |  | 103 | 97.2 | 95.9 | 122 | 79.2 | 87.3 | 91.1 | 83.7 | 76.6 | 93 | 103 | 80.7 | 90 | 111 | 86 | 85.8 | 104 | 86.1 | 92.6 | 92.2 | 96.1 | 73.8 | 86.8 | 87.7 | 106
3 | Cn1cncc1[C@@](N)(c1ccc(Cl)cc1)c1ccc2c(c1)c(-c1cccc(Cl)c1)cc(=O)n2C [Tipifarnib] (10 nM) |  |  |  |  |  |  |  |  |  |  |  |  |  |  |  |  |  | 94.4 | 98.9 | 93.1 | 96.7 | 121 | 108 | 102 | 101 | 94.3 | 82.3 | 87.7 | 95.8 | 92.3 | 98.6 | 88.7 | 84.6 | 94 | 95.2 | 85.1 | 
4 | O=C1NC(=O)[C@@H](c2cn3c4c(cccc24)CCC3)[C@@H]1c1c[nH]c2ccccc12 [Tivantinib] (0.1 nM) |  |  |  |  |  |  |  |  |  |  |  |  |  |  |  |  |  | 102 | 104 | 101 | 101 | 87.5 | 96.2 | 98.8 | 97.9 | 107 | 95.6 | 101 | 103 | 101 | 97.8 | 106 | 92.5 | 104 | 103 | 108 | 
5 | O=C1NC(=O)[C@@H](c2cn3c4c(cccc24)CCC3)[C@@H]1c1c[nH]c2ccccc12 [Tivantinib] (1 nM) |  |  |  |  |  |  |  |  |  |  |  |  |  |  |  |  |  | 107 | 101 | 100 | 100 | 106 | 96.1 | 98 | 98.9 | 104 | 101 | 98.7 | 101 | 106 | 98.2 | 109 | 106 | 104 | 97.9 | 113 | 
6 | CC[C@]1(O)C[C@H]2CN(CCc3c([nH]c4ccccc34)[C@@](C(=O)OC)(c3cc4c(cc3OC)N(C=O)[C@H]3[C@@](O)(C(=O)OC)[C@H](OC(C)=O)[C@]5(CC)C=CCN6CC[C@]43[C@@H]65)C2)C1 [Vincristine] (0.1 nM) |  |  |  |  |  |  |  |  |  |  |  |  |  |  |  |  |  | 97.8 | 99.5 | 94.7 | 109 | 88.2 | 99.1 | 106 | 103 | 92.7 | 94.1 | 99.9 | 110 | 105 | 104 | 116 | 107 | 112 | 102 | 102 | 
